Biological target: T1, human CXCR3 (N-delta 4) (Homo sapiens, UniProt P49682)
T1 construct: CD8 leader (N); Flag tag; expressed in transfected cells; membrane preparation
T1 sequence (P49682 5-368 limits assumed): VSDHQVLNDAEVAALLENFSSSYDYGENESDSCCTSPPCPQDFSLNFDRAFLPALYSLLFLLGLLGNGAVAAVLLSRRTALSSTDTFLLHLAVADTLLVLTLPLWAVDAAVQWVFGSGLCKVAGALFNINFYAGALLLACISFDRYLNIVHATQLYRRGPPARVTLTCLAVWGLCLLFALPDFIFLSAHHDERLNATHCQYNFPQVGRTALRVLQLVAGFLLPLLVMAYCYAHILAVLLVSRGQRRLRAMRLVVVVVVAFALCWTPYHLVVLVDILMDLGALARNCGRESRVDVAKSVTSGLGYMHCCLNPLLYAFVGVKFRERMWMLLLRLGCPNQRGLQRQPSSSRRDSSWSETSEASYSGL
Assay: Human CXCR3 (N-delta 4) scintillation proximity assay (SPA), [125I] IP-10 binding to Ba/F3-hCXCR3 membranes
Settings: IC50 rating; [125I] IP-10 displacement, human CXCR3; read-out: IC50
Excerpt: The inventive compounds can readily be evaluated to determine activity at the CXCR3 receptors by known methods, such as, for example, development of a human CXCR3 (N-delta 4) Binding Assay.
The DNA encoding human CXCR3 was cloned by PCR using human genomic DNA (Promega, Madison, Wis.) as a template. The PCR primers were designed based on the published sequence of human orphan receptor GPR9 (1) with incorporated restriction sites, a Kozak consensus sequence, CD8 leader and Flag tag. The PCR product was subcloned into the mammalian expression vector pME18Sneo, a derivative of the SR-alpha expression vector (designated as pME18Sneo-hCXCR3 (N-delta 4).
IL-3-dependent mouse pro-B cells Ba/F3 were transfected by electroporation in 0.4 ml Dulbecco's PBS containing 4×10^6 cells with 20 μg of pME18Sneo-hCXCR3 (N-delta 4) plasmid DNA. Cells were pulsed at 400 Volts, 100 OHMs, 960 μFd. The transfected cells were under selection with 1 mg/ml G418 (Life Technologies, Gaithersburg, Md.). G418-resistant Ba/F3 clones were screened for CXCR3 expression by specific binding of [^125I] IP-10 (NEN Life Science Products, Boston, Mass.).
Ba/F3 cells expressing human CXCR3 (N-delta 4) were pelleted and resuspended in the lysis buffer containing 10 mM HEPES, pH 7.5 and Complete® protease inhibitors (1 tablet per 100 ml) (Boehringer Mannheim, Indianapolis, Ind.) at a cell density of 20×10^6 cells per ml. After 5 minute incubation on ice, cells were transferred to 4639 cell disruption bomb (Parr Instrument, Moline, Ill.) and applied with 1,500 psi of nitrogen for 30 minutes on ice. Large cellular debris was removed by centrifugation at 1,000×g. Cell membrane in the supernatant was sedimented at 100,000×g. The membrane was resuspended in the lysis buffer supplemented with 10% sucrose and stored at −80° C. Total protein concentration of the membrane was determined by BCA method from Pierce (Rockford, Ill.).
Human CXCR3 (N-Delta 4) Scintillation Proximity Assay (SPA):
For each assay point, 2 μg of membrane was preincubated for 1 hr with 300 μg wheat germ agglutinin (WGA) coated SPA beads (Amersham, Arlington Heights, Ill.) in the binding buffer (50 mM HEPES, 1 mM CaCl2, 5 mM MgCl2, 125 mM NaCl, 0.002% NaN3, 1.0% BSA) at room temperature. The beads were spun down, washed once, resuspended in the binding buffer and transferred to a 96-well Isoplate (Wallac, Gaithersburg, Md.). 25 pM of [^125I] IP-10 with tested compounds in a series of titration were added to start the reaction. After 3 hr reaction at room temperature, the amount of [^125I] IP-10 bound to the SPA beads was determined with a Wallac 1450 Microbeta counter.

SMILES | IC50
CC[C@H]1CN(c2ncc(NS(=O)(=O)NC(=O)OC(C)(C)C)cc2Cl)CCN1C1CCN(Cc2ccc(Cl)cc2F)CC1 [Compound 55] | > 100 nM
COc1ccc(CN2CCC(N3CCN(c4ncc(NS(C)(=O)=O)cc4Cl)C[C@@H]3C)CC2)c(F)c1 [Compound 56] | > 100 nM
C[C@H]1CN(c2ncc(NS(C)(=O)=O)cc2Cl)CCN1C1CCN(CCCc2ccc(Cl)cc2)CC1 [Compound 57] | > 100 nM
CC[C@H]1CN(c2ncc(NS(C)(=O)=O)cc2Cl)CCN1C1CCN(Cc2cccs2)CC1 [Compound 58] | > 100 nM
CC[C@H]1CN(c2ncc(NS(C)(=O)=O)cc2Cl)CCN1C1CCN([C@@H](C(N)=O)c2ccc(Cl)cc2)CC1 [Compound 59] | > 100 nM
CC[C@H]1CN(c2ncc(NS(C)(=O)=O)cc2Cl)CCN1C1CCN(Cc2ccsc2)CC1 [Compound 60] | > 100 nM
CC[C@H]1CN(c2ncc(N(S(C)(=O)=O)S(C)(=O)=O)cc2Cl)CCN1C1CCN(Cc2ccc(Cl)cc2F)CC1 [Compound 61] | > 100 nM
CC[C@H]1CN(c2ncc(NS(C)(=O)=O)cc2Cl)CCN1C1CCN(C(=O)c2ccc(Cl)cc2O)CC1 [Compound 62] | > 100 nM
CC[C@H]1CN(c2ncc(NS(C)(=O)=O)cc2Cl)CCN1C1CCN(C(=O)c2ccc(Cl)c(Cl)c2)CC1 [Compound 63] | > 100 nM
C[C@H]1CN(c2ncc(NS(C)(=O)=O)cc2Cl)CCN1C1CCN(Cc2ccc(C(F)(F)F)cc2F)CC1 [Compound 64] | > 100 nM
CC[C@H]1CN(c2ncc(NS(C)(=O)=O)cc2Cl)CCN1C1CCN(Cc2ccc(Br)cc2OC)CC1 [Compound 65] | > 100 nM
C[C@H]1CN(c2ncc(NS(C)(=O)=O)cc2Cl)CCN1C1CCN(C(=O)c2ccc(Cl)cc2)CC1 [Compound 66] | > 100 nM
CC[C@H]1CN(c2ncc(NS(C)(=O)=O)cc2Cl)CCN1C1CCN(Cc2ccc(O)cc2)CC1 [Compound 67] | > 100 nM
CC[C@H]1CN(c2ncc(NS(C)(=O)=O)cc2Cl)CCN1C1CCN(C(=O)c2ccc(OC(F)(F)F)cc2)CC1 [Compound 68] | > 100 nM
CC[C@H]1CN(c2ncc(NS(C)(=O)=O)cc2Cl)CCN1C1CCN(C(=O)c2ccc(Br)s2)CC1 [Compound 69] | > 100 nM
CC[C@H]1CN(c2ncc(Nc3c(NC4CC4)c(=O)c3=O)cc2Cl)CCN1C1CCN(Cc2ccc(Cl)cc2)CC1 [Compound 70] | < 25 nM
CC[C@H]1CN(c2ncc(Nc3c(NC4CC4)c(=O)c3=O)cc2Cl)CCN1C1CCN([C@H](CO)c2ccc(Cl)cc2)CC1 [Compound 71] | < 25 nM
CC[C@H]1CN(c2ncc(Nc3c(NCCO)c(=O)c3=O)cc2Cl)CCN1C1CCN(Cc2ccc(Cl)cc2C(N)=O)CC1 [Compound 72] | < 25 nM
CC[C@H]1CN(c2ncc(Nc3c(NC4CC4)c(=O)c3=O)cc2Cl)CCN1C1CCN(Cc2ccc(Cl)cc2F)CC1 [Compound 73] | < 25 nM
CC[C@H]1CN(c2ncc(Nc3c(NC4CC4)c(=O)c3=O)cc2Cl)CCN1C1CCN(Cc2ccc(OC(F)F)cc2)CC1 [Compound 74] | < 25 nM
CC[C@H]1CN(c2ncc(Nc3c(NCC(F)(F)F)c(=O)c3=O)cc2Cl)CCN1C1CCN(Cc2ccc(Cl)cc2F)CC1 [Compound 75] | < 25 nM
CC[C@H]1CN(c2ncc(Nc3c(N)c(=O)c3=O)cc2Cl)CCN1C1CCN(Cc2ccc(Cl)cc2F)CC1 [Compound 76] | < 25 nM
CC[C@H]1CN(c2ncc(Nc3c(NC4CC4)c(=O)c3=O)cc2Cl)CCN1C1CCN(Cc2ccc(OC(F)(F)F)cc2)CC1 [Compound 77] | < 25 nM
CC[C@H]1CN(c2ncc(Nc3c(NC4CCC4)c(=O)c3=O)cc2Cl)CCN1C1CCN(Cc2ccc(Cl)cc2)CC1 [Compound 78] | < 25 nM
CC[C@H]1CN(c2ncc(Nc3c(NC4CC4)c(=O)c3=O)cc2Cl)CCN1C1CCN(Cc2ccc(Br)cc2F)CC1 [Compound 79] | < 25 nM
CC[C@H]1CN(c2ncc(Nc3c(NC4CC4)c(=O)c3=O)cc2Cl)CCN1C1CCN(Cc2ccc(C#N)cc2)CC1 [Compound 80] | < 25 nM

The remaining lines, values ahead:

IC50 | SMILES
< 25 nM | CC[C@H]1CN(c2ncc(Nc3c(NC4CC4)c(=O)c3=O)cc2Cl)CCN1C1CCN(Cc2ccc(Cl)cc2C(N)=O)CC1 [Compound 81]
< 25 nM | CC[C@H]1CN(c2ccc(Nc3c(NC4CC4)c(=O)c3=O)cc2Cl)CCN1C1CCN(Cc2ccc(Cl)cc2F)CC1 [Compound 82]
< 25 nM | CC[C@H]1CN(c2ncc(Nc3c(NC4CCC4)c(=O)c3=O)cc2Cl)CCN1C1CCN(Cc2ccc(OC(F)(F)F)cc2)CC1 [Compound 83]
< 25 nM | CC[C@H]1CN(c2ncc(Nc3c(C(C)C)c(=O)c3=O)cc2Cl)CCN1C1CCN(Cc2ccc(Cl)cc2F)CC1 [Compound 84]
< 25 nM | CC[C@H]1CN(c2ncc(Nc3c(NCC(F)(F)F)c(=O)c3=O)cc2Cl)CCN1C1CCN(C(CO)c2ccc(Cl)cc2)CC1 (stereo partly shown) [Compound 85]
< 25 nM | CC[C@H]1CN(c2ncc(Nc3c(C(C)C)c(=O)c3=O)cc2Cl)CCN1C1CCN(Cc2ccc(OC(F)(F)F)cc2)CC1 [Compound 86]
< 25 nM | CC[C@H]1CN(c2ncc(Nc3c(NC4CCC4)c(=O)c3=O)cc2Cl)CCN1C1CCN(Cc2ccc(Cl)cc2F)CC1 [Compound 87]
< 25 nM | CC[C@H]1CN(c2ncc(Nc3c(C(C)C)c(=O)c3=O)cc2Cl)CCN1C1CCN(Cc2ccc(C#N)cc2)CC1 [Compound 88]
< 25 nM | C[C@@H]1CN(c2ncc(Nc3c(NCC(F)(F)F)c(=O)c3=O)cc2Cl)[C@@H](C)CN1C1CCN(Cc2ccc(Cl)cc2F)CC1 [Compound 89]
< 25 nM | C[C@@H]1CN(C2CCN(Cc3ccc(Cl)cc3F)CC2)[C@@H](C)CN1c1ncc(Nc2c(NC3CC3)c(=O)c2=O)cc1Cl [Compound 90]
< 25 nM | CC[C@H]1CN(c2ncc(Nc3c(NC4CC4)c(=O)c3=O)cc2Cl)CCN1C1CCN(Cc2ccc(Cl)cc2C(=O)OC)CC1 [Compound 91]
< 25 nM | C[C@@H]1CN(C2CCN(Cc3ccc(Cl)cc3F)CC2)[C@@H](C)CN1c1ncc(Nc2c(NCC(F)(F)F)c(=O)c2=O)cc1Cl [Compound 92]
< 25 nM | CC[C@H]1CN(c2ncc(Nc3c(N4CCC4)c(=O)c3=O)cc2Cl)CCN1C1CCN(Cc2ccc(Cl)cc2F)CC1 [Compound 93]
< 25 nM | CC[C@H]1CN(c2ncc(Nc3c(N(C)C)c(=O)c3=O)cc2Cl)CCN1C1CCN(C(CO)c2ccc(Cl)cc2)CC1 (stereo partly shown) [Compound 94]
< 25 nM | CC[C@H]1CN(c2ncc(Nc3c(NCCN(C)C)c(=O)c3=O)cc2Cl)CCN1C1CCN([C@H](CO)c2ccc(Cl)cc2)CC1 [Compound 95]
< 25 nM | CC[C@H]1CN(c2ncc(Nc3c(N4CCOCC4)c(=O)c3=O)cc2Cl)CCN1C1CCN(Cc2ccc(Cl)cc2F)CC1 [Compound 96]
< 25 nM | CC[C@H]1CN(c2ncc(Nc3c(NC4CC4)c(=O)c3=O)cc2Cl)CCN1C1CCN(Cc2ccc(Cl)cc2C#N)CC1 [Compound 97]
< 25 nM | C[C@@H]1CN(c2ncc(Nc3c(NCC(F)(F)F)c(=O)c3=O)cc2Cl)[C@@H](C)CN1C1CCN(Cc2ccc(Cl)cc2)CC1 [Compound 98]
< 25 nM | CC[C@H]1CN(c2ncc(Nc3c(NC4CC4)c(=O)c3=O)cc2Cl)CCN1C1CCN(Cc2ccc(Cl)cc2[N+](=O)[O-])CC1 [Compound 99]
< 25 nM | C[C@@H]1CN(C2CCN(Cc3ccc(Cl)cc3F)CC2)[C@@H](C)CN1c1ncc(Nc2c(N)c(=O)c2=O)cc1Cl [Compound 100]
< 25 nM | CC[C@H]1CN(c2ncc(Nc3c(NC4CC4)c(=O)c3=O)cc2Cl)CCN1C1CCN([C@@H](C(=O)NC)c2ccc(Cl)cc2)CC1 [Compound 101]
< 25 nM | CC[C@H]1CN(c2ncc(Nc3c(NC4CC4)c(=O)c3=O)cc2Cl)CCN1C1CCN(C(=O)c2ccc(Cl)cc2)CC1 [Compound 102]
25 to 100 nM | CC[C@H]1CN(c2ncc(Nc3c(NCC(N)=O)c(=O)c3=O)cc2Cl)CCN1C1CCN([C@H](CO)c2ccc(Cl)cc2)CC1 [Compound 103]

— patent US7566718B2, “Amine-linked pyridyl and phenyl substituted piperazine-piperidines with CXCR3 antagonist activity” (Schering Corporation, priority 2005, dated 2009)
